Experimental data reported in patent US8952024B2, “Herbicidal pyrimidone derivatives” (E I du Pont de Nemours and Company, priority 2009, dated 2015).
Like-named read-outs stand apart in the source and are kept apart here.

Assays:
Type in all cases: in vivo
[1] = test system: barnyardgrass (Echinochloa crus-galli); assay: Test A pre-/postemergence plant response; conditions: Echinochloa crus-galli, 240 h, read-out: Plant response rating, Barnyardgrass; for pest or weed control at 125 g/ha: 125 g ai/ha; for pest or weed control at 500 g/ha: 500 g ai/ha, approx. ten days
Outline: (§1)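 Visual injury rating on a 0–100 scale (0 = no effect, 100 = complete control) was made versus untreated controls after about ten days in the greenhouse. Compounds, formulated in a non-phytotoxic solvent mix containing surfactant, were sprayed preemergence onto loam/sand soil and postemergence onto one- to two-leaf plants.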

[2] = test system: corn (Zea mays); assay: Test A pre-/postemergence plant response; conditions: Zea mays, 240 h; for Corn plant response rating (crop injury, 0 = no effect, 100 = complete kill) at 125 g/ha: 125 g ai/ha; for Corn plant response rating (crop injury, 0 = no effect, 100 = complete kill) at 500 g/ha: 500 g ai/ha, approx. ten days
Outline: as §1

[3] = test system: giant foxtail (Setaria faberii); assay: Test A pre-/postemergence plant response; conditions: Setaria faberi, 240 h, read-out: Plant response rating, Foxtail, Giant; for pest or weed control at 125 g/ha: 125 g ai/ha; for pest or weed control at 500 g/ha: 500 g ai/ha, approx. ten days
Outline: as §1

[4] = test system: large crabgrass (Digitaria sanguinalis); assay: Test A pre-/postemergence plant response; conditions: Digitaria sanguinalis, 240 h, read-out: Plant response rating, Crabgrass, Large; for pest or weed control at 125 g/ha: 125 g ai/ha; for pest or weed control at 500 g/ha: 500 g ai/ha, approx. ten days
Outline: as §1

[5] = test system: morningglory (Ipomoea spp.); assay: Test A pre-/postemergence plant response; conditions: Ipomoea, 240 h, read-out: Plant response rating, Morningglory; for pest or weed control at 125 g/ha: 125 g ai/ha
Outline: as §1

[6] = test system: pigweed (Amaranthus retroflexus); assay: Test A pre-/postemergence plant response; conditions: Amaranthus retroflexus, 240 h, read-out: Plant response rating, Pigweed; for pest or weed control at 125 g/ha: 125 g ai/ha; for pest or weed control at 500 g/ha: 500 g ai/ha, approx. ten days
Outline: as §1

[7] = test system: velvetleaf (Abutilon theophrasti); assay: Test A pre-/postemergence plant response; conditions: Abutilon theophrasti, 240 h, read-out: Plant response rating, Velvetleaf; for pest or weed control at 125 g/ha: 125 g ai/ha; for pest or weed control at 500 g/ha: 500 g ai/ha, approx. ten days
Outline: as §1

[8] = test system: wheat (Triticum aestivum); assay: Test A pre-/postemergence plant response; conditions: Triticum aestivum, 240 h, read-out: Plant response rating, Wheat; for plant injury at 125 g/ha: 125 g ai/ha; for plant injury at 500 g/ha: 500 g ai/ha, approx. ten days
Outline: as §1

[9] = test system: winter barley (Hordeum vulgare); assay: Test B postemergence plant response
Outline: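 Plants grown in peat/vermiculite medium were sprayed postemergence at 2–18 cm height (1- to 4-leaf stage). After 13–15 days in the greenhouse, response was rated visually against untreated controls on a 0–100 scale (0 no effect, 100 complete control).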

[10] = test system: barnyardgrass (Echinochloa crus-galli); assay: Test B flooded paddy test
Outline: (§2)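 Flooded-pot test: water raised to 3 cm above soil when treating, compound put in the water, level unchanged thereafter. Plants were at 2 leaves. Readout after 13 to 15 days, visual, relative to controls; 0 signifies no effect and 100 complete control.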

[11] = test system: ducksalad (Heteranthera limosa); assay: Test B flooded paddy test
Outline: as §2

[12] = test system: rice (Oryza sativa); assay: Test B flooded paddy test
Outline: as §2

[13] = test system: umbrella sedge (Cyperus difformis); assay: Test B flooded paddy test
Outline: as §2

[14] = post-emergence, Postemergence, 0 to 100 scale where 0 is no effect and 100 is complete control
[15] = post-emergence, Postemergence, 0 to 100 scale, 0 = no effect, 100 = complete control
[16] = pre-emergence, Preemergence, 0 to 100 scale, 0 = no effect, 100 = complete control
[17] = pre-emergence, Preemergence, visual injury, 0 to 100 scale (0 no effect, 100 complete control)
[18] = Flood, 31 g ai/ha, scale 0 to 100 (0 no effect, 100 complete control)

Question: How did the pest or weed control at 125 g/ha [1, 14] turn out when `O=C1CCCC(O)=C1C(=O)c1cnc(-c2ccccc2)n(C2CCCCC2)c1=O` [Compound 128, 3-cyclohexyl-5-[(2-hydroxy-6-oxo-1-cyclohexen-1-yl)carbonyl]-2-phenyl-4(3H)-pyrimidinone] was run?
Answer: 100%

Question: What about the pest or weed control at 500 g/ha [1, 15] of the same compound?
Answer: 100%

Question: What about the pest or weed control at 125 g/ha [1, 16] of the same compound?
Answer: 10%

Question: What about the pest or weed control at 500 g/ha [1, 17] of the same compound?
Answer: 100%

Question: And the Corn plant response rating (crop injury, 0 = no effect, 100 = complete kill) at 125 g/ha [2, 14]?
Answer: 20%

Question: What about the Corn plant response rating (crop injury, 0 = no effect, 100 = complete kill) at 500 g/ha [2, 15] of the same compound?
Answer: 60%

Question: And the Corn plant response rating (crop injury, 0 = no effect, 100 = complete kill) at 125 g/ha [2, 16]?
Answer: 0%

Question: And the Corn plant response rating (crop injury, 0 = no effect, 100 = complete kill) at 500 g/ha [2, 17]?
Answer: 0%

Question: What about the pest or weed control at 125 g/ha [3, 14] of the same compound?
Answer: 90%

Question: And the pest or weed control at 500 g/ha [3, 15]?
Answer: 90%

Question: What about the pest or weed control at 125 g/ha [3, 16] of the same compound?
Answer: 60%

Question: And the pest or weed control at 500 g/ha [3, 17]?
Answer: 90%

Question: And the pest or weed control at 125 g/ha [4, 14]?
Answer: 90%

Question: What about the pest or weed control at 500 g/ha [4, 15] of the same compound?
Answer: 90%

Question: What about the pest or weed control at 125 g/ha [4, 16] of the same compound?
Answer: 80%

Question: And the pest or weed control at 500 g/ha [4, 17]?
Answer: 100%

Question: And the pest or weed control at 125 g/ha [5, 14]?
Answer: 100%

Question: And the pest or weed control at 500 g/ha ([5]; post-emergence, Postemergence, 500 g ai/ha, 0 to 100 scale, 0 = no effect, 100 = complete control, approx. ten days)?
Answer: 100%

Question: What about the pest or weed control at 125 g/ha [5, 16] of the same compound?
Answer: 80%

Question: And the pest or weed control at 125 g/ha [6, 14]?
Answer: 100%

Question: And the pest or weed control at 500 g/ha [6, 15]?
Answer: 100%

Question: What about the pest or weed control at 125 g/ha [6, 16] of the same compound?
Answer: 80%

Question: And the pest or weed control at 500 g/ha [6, 17]?
Answer: 100%

Question: And the pest or weed control at 125 g/ha [7, 14]?
Answer: 100%

Question: What about the pest or weed control at 500 g/ha [7, 15] of the same compound?
Answer: 100%

Question: What about the pest or weed control at 125 g/ha [7, 16] of the same compound?
Answer: 80%

Question: What about the pest or weed control at 500 g/ha [7, 17] of the same compound?
Answer: 100%

Question: What about the plant injury at 125 g/ha [8, 14] of the same compound?
Answer: 0%

Question: And the plant injury at 500 g/ha [8, 15]?
Answer: 20%

Question: And the plant injury at 125 g/ha [8, 16]?
Answer: 0%

Question: What about the plant injury at 500 g/ha [8, 17] of the same compound?
Answer: 30%

Question: What about the “Barley plant response rating (0 to 100 scale)” value ([9]; 62 g ai/ha, postemergence, 0 is no effect, 100 is complete control, 13 to 15 days) of the same compound?
Answer: 0

Question: And the plant injury at 31 g/ha ([9]; Hordeum vulgare, post-emergence, Postemergence, 31 g ai/ha, 0 to 100 scale (0 no effect, 100 complete control), read-out: Plant response rating, Barley)?
Answer: 0%

Question: And the plant injury at 125 g/ha ([9]; Hordeum vulgare, post-emergence, Postemergence, 125 g ai/ha, scale 0 to 100 (0 no effect, 100 complete control), read-out: Plant response rating, Barley)?
Answer: 0%

Question: And the plant injury at 250 g/ha ([9]; Hordeum vulgare, post-emergence, Postemergence, 250 g ai/ha, scale 0 to 100 (0 no effect, 100 complete control), 13 to 15 days, read-out: Plant response rating, Barley)?
Answer: 5%

Question: And the pest or weed control at 250 g/ha ([10]; Echinochloa crus-galli, 360 h, 250 g ai/ha, flooded paddy test, visual rating on 0 to 100 scale (0 no effect, 100 complete control) after 13 to 15 days, read-out: Plant response rating, Flood, Barnyardgrass)?
Answer: 40%

Question: And the pest or weed control at 62 g/ha ([10]; Echinochloa crus-galli, 360 h, Flood (flooded paddy test), 62 g ai/ha, scale of 0 to 100 where 0 is no effect and 100 is complete control, 13 to 15 days, read-out: Plant response rating, Barnyardgrass)?
Answer: 10%

Question: What about the pest or weed control at 125 g/ha ([10]; Echinochloa crus-galli, 360 h, Flood (flooded paddy test), 125 g ai/ha, scale 0 to 100, 0 is no effect, 100 is complete control, 13 to 15 days, read-out: Plant response rating, Barnyardgrass) of the same compound?
Answer: 15%

Question: What about the “Barnyardgrass plant response rating” value [10, 18] of the same compound?
Answer: 0

Question: And the “Ducksalad plant response rating” value [11, 18]?
Answer: 90

Question: And the pest or weed control at 250 g/ha ([11]; Heteranthera limosa, 360 h, 250 g ai/ha, flooded paddy test, visual rating on 0 to 100 scale (0 no effect, 100 complete control) after 13 to 15 days, read-out: Plant response rating, Flood, Ducksalad)?
Answer: 100%

Question: What about the pest or weed control at 62 g/ha ([11]; Heteranthera limosa, 360 h, Flood (flooded paddy test), 62 g ai/ha, scale of 0 to 100 where 0 is no effect and 100 is complete control, 13 to 15 days, read-out: Plant response rating, Ducksalad) of the same compound?
Answer: 95%

Question: And the pest or weed control at 125 g/ha ([11]; Heteranthera limosa, 360 h, Flood (flooded paddy test), 125 g ai/ha, scale 0 to 100, 0 is no effect, 100 is complete control, 13 to 15 days, read-out: Plant response rating, Ducksalad)?
Answer: 95%

Question: And the “Rice plant response rating” value [12, 18]?
Answer: 0

Question: And the plant injury at 250 g/ha ([12]; Oryza sativa, 250 g ai/ha, flooded paddy test, visual rating on 0 to 100 scale (0 no effect, 100 complete control) after 13 to 15 days, read-out: Plant response rating, Flood, Rice)?
Answer: 35%

Question: And the plant injury at 62 g/ha ([12]; Oryza sativa, Flood (flooded paddy test), 62 g ai/ha, scale of 0 to 100 where 0 is no effect and 100 is complete control, 13 to 15 days, read-out: Plant response rating, Rice)?
Answer: 0%

Question: What about the plant injury at 125 g/ha ([12]; Oryza sativa, Flood (flooded paddy test), 125 g ai/ha, scale 0 to 100, 0 is no effect, 100 is complete control, 13 to 15 days, read-out: Plant response rating, Rice) of the same compound?
Answer: 10%

Question: And the pest or weed control at 250 g/ha ([13]; Cyperus difformis, 360 h, 250 g ai/ha, flooded paddy test, visual rating on 0 to 100 scale (0 no effect, 100 complete control) after 13 to 15 days, read-out: Plant response rating, Flood, Sedge, Umbrella)?
Answer: 75%

Question: What about the pest or weed control at 62 g/ha ([13]; Cyperus difformis, 360 h, Flood (flooded paddy test), 62 g ai/ha, scale of 0 to 100 where 0 is no effect and 100 is complete control, 13 to 15 days, read-out: Plant response rating, Sedge, Umbrella) of the same compound?
Answer: 30%

Question: What about the pest or weed control at 125 g/ha ([13]; Cyperus difformis, 360 h, Flood (flooded paddy test), 125 g ai/ha, scale 0 to 100, 0 is no effect, 100 is complete control, 13 to 15 days, read-out: Plant response rating, Sedge, Umbrella) of the same compound?
Answer: 60%

Question: And the “Sedge, Umbrella plant response rating” value [13, 18]?
Answer: 0
